Measurements reported in US6214859A, “Ethylamine derivatives” (Fujimoto Brothers Co., Ltd., priority 1997, dated 2001).
pIC50: −log10 of the molar value.

Tests used:
5-HT1 receptor = assay: Affinity to 5-HT1 receptor; parameters: species or system rat; conditions: read-out: Affinity to 5-HT1 receptor (MIC50; mole concentration for 50% inhibition of binding); 2 nM ^3H-5-HT
α1 receptor = assay: Affinity to α1 receptor; parameters: species or system rat; conditions: read-out: Affinity to α1 receptor (MIC50; mole concentration for 50% inhibition of binding); 0.25 nM ^3H-prazocin; 90 min
Procedure: The solution of receptor was prepared as follows. As soon as rats were decapitated, brain was removed and its weight was measured. Its brain was homogenized in ten times volumes of ice-cold 0.35 M sucrose (pH 7.4) by glass homogenizer with teflon pestle which was revolted by motors. Thereafter, the homogenate was centrifuged at 4° C. at 900×g for 10 min and the supernatant was, furthermore, recentrifuged at 4° C. at 22,000×g for 20 min. The precipitate was suspended by addition of 5 mM phosphate buffer solution (pH 7.4). After the suspension was incubated at 37° C. for 30 min, the suspension was recentrifuged at 4° C. at 22,000×g for 20 min. The precipitate was resuspended by addition of 10 ml of 5 mM phosphate buffer solution (pH 8.0). The precipitate was used as the solution of receptor.
^3 H-prazocin was used as a ligand. 0.25 nM ^3 H-prazocin in 5 mM phosphate buffer (pH 8.0), the compound of this invention and the solution of receptor were added in tube and the mixture were incubated at 25° C. for 90 min. In addition, the […] binding was shown by binding value of ^3 H-prazocin under the coexistence with 0.1 μM prazocin. The binding reaction was carried out as follows. After ^3 H-prazocin (binding type: B) bound to receptor using glassfiberfilter (pore size: 0.5 μm, Whatman GF/C.) and free type of prazocin (free type: F) were separated with B/F separator (Brandel, USA), only the binding type of ^3 H-prazocin was collected. The binding type of ^3 H-prazocin absorbed to glass-fiber filter was washed with ice-cold saline solution and was remove to vial. After 10 ml of scintillation cocktail was added in it, the radioactivity was determined. From the binding inhibition rate of α1 receptor and ligand, affinity of the compounds of this invention to α1 receptor was measured.
If affinity of certain compound to a receptor is high, the binding ligand and receptor is inhibited.

CCCNC(CCC)Cc1c[nH]c2ccccc12.Cl (centres unmarked) [Compound No. 20, 1-(Indol-3-yl)-2-propylaminopentane Hydrochloride]
pIC50 (5-HT1 receptor): 5.15 | pIC50 (α1 receptor): 4.10
